Article PMC12560410, “Multi spectroscopic investigations with molecular docking and molecular dynamics simulation of the binding mechanism of molnupiravir to bovine serum albumin” (BMC Chemistry, 2025)

How the values were obtained:
[1] = design: method as in PMID 39912659, PMID 37526305; details: following oral administration; hydrolyzed by esterases to NHC; cited from earlier work
[2] = molecular target: T1, bovine serum albumin (BSA) (Bos taurus, UniProt P02769); test: Fluorescence quenching of BSA by MOL (Stern–Volmer and modified Stern–Volmer analysis, thermodynamics); type: binding; details: for Ksv (Stern–Volmer quenching constant) / n (number of binding sites) / Kd: pH 7.4; for Kd: read-out: Log Ka (converted)
T1 construct: purchased BIOMARK laboratories (Pune, Maharashtra, India)
T1 sequence (P02769 25-607): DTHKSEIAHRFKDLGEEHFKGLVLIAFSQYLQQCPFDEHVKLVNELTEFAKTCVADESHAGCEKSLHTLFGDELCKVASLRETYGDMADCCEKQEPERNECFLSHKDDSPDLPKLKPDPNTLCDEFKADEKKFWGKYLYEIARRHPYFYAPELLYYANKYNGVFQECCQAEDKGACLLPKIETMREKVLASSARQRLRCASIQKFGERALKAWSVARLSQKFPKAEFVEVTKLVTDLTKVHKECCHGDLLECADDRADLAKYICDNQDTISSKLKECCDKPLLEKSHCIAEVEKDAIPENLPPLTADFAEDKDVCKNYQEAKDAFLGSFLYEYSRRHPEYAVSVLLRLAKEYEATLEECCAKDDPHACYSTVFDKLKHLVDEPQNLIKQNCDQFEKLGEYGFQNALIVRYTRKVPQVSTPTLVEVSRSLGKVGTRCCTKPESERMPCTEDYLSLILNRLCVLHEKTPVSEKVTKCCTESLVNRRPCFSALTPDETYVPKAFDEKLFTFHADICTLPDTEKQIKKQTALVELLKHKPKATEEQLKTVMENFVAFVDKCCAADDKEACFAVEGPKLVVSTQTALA
Method: The fluorescence of the tyrosine (Tyr) and tryptophan (Trp) residues observed for solutions that have a fixed BSA concentration 3 µM and different concentrations of MOL (30–180 µM) at pH 7.4. The emission spectra were obtained between 300 and 500 nm. The excitation wavelength was 295 nm, at temperatures 285, 290, 295, 303, and 308 K. […]
Utilizing the Stern–Volmer equation, the quenching mechanism was identified (Eq. 1):1 [drawing 1]
The fluorescence intensities of BSA in absence of MOL are indicated as [drawing 2] while those measured in the presence of MOL are referred to as [drawing 3] . The term [drawing 4] represents the Stern–Volmer quenching rate constant. MOL concentration represents the quencher concentration [drawing 5] .
F^0/F was plotted versus [Q], then the slope was calculated to obtain the values of Ksv as shown in the Stern–Volmer equation (Eq. 1) to assess the experimental results as shown in Fig. 3.
IFE-corrected fluorescence intensity values were calculated using the following formula: […]
The modified Stern–Volmer equation is used to determine the stoichiometry (n) and equilibrium association constant (Ka), which govern how small molecules interact with specific binding sites on a macromolecule (Eq. 2).2 [drawing 7]
where [drawing 8] represents the number of binding sites and [drawing 9] represents the binding constant, as calculated from the plots of log [(F0–F)/F] against log [Q]. The plot of the modified Stern–Volmer equation was illustrated in Fig. S2. […] The stoichiometry of the binding interaction concerning MOL and BSA was approximately 1:1, as indicated by the n value being close to unity.
The intercept and slope of the plot of ln Ka vs. 1/T were used to determine ΔS (entropy change) and ΔH (enthalpy change), respectively in accordance with the Vant’s Hoff equation (Eq. 3), as shown in Table 2.
Furthermore, the Gibbs–Helmholtz equation determines ΔG (Eq. 4).3 [drawing 10] 4 [drawing 11]
where ΔG denotes the Gibbs free energy change and R denotes the universal gas constant (8.314 J mol^−1 k^−1) while T is the absolute temperature (K). […] The negative values of both ΔH and ΔS indicate that the binding of MOL to BSA is primarily governed by hydrogen bonding and van der Waals interactions rather than hydrophobic forces. The thermodynamic results, was supported by docking analysis, confirming that hydrogen bonding and van der Waals contacts are the dominant driving forces in MOL–BSA complex formation. […] Moreover, the spontaneity of the interaction could reflect the favorable conformational stability of the MOL-BSA complex.

BSA = molecular target: T2, BSA (Bos taurus, UniProt P02769); test: Synchronous fluorescence spectroscopy of BSA with MOL; type: binding, bovine; details: MOL 0–180 µM, pH 7.4
T2 construct: purchased BIOMARK laboratories (Pune, Maharashtra, India)
T2 sequence (P02769 25-607): as above
Method: Initially, the synchronous fluorescence spectra of BSA were acquired at a concentration of 3µM, and then its mixtures with MOL ranged from 30 to 180 µM at pH 7.4. These spectra were obtained at spectral intervals of Δλ = 15 nm as well as Δλ = 60 nm, with a 10 mm path quartz cell and scanning rate of 1000 nanometers per minute (nm/min).
The polarity of the surrounding environment of the fluorescent amino acids in BSA is influenced by ligand interaction, and this has been studied using synchronous fluorescence spectroscopy. In this study, a scanning interval (Δλ) of 60 nm and 15 nm was set between the excitation and emission wavelengths, allowing for the observation of polarity alterations surrounding tyrosine (Tyr) and tryptophan (Trp) residues, respectively.
Spectra of BSA synchronous fluorescence were acquired for BSA solutions both with and without the addition of MOL (Fig. 4). […] The Ratios of Synchronous Fluorescence Quenching (RSFQ) were determined using Eq. 5 as follows: […]

[3] = molecular target: T1, bovine serum albumin (BSA); test: Site marker competition (indomethacin site I, diazepam site II) for MOL binding to BSA; details: 295 K, pH 7.4; for Kd: read-out: Log Ka (converted)
Method: This study was conducted using two specific site probes: indomethacin for site I and diazepam for site II. In these experiments, the concentrations of BSA and the site probes were kept constant at 3 µM and 10 µM, respectively, while the concentration of MOL was varied from 30 to 180 µM. Fluorescence intensity was measured at 350 nm with excitation at 295 nm, and all measurements were carried out at 295 K and pH 7.4. The binding equilibrium constants (Ka) of MOL to BSA alone, indomethacin-BSA, and diazepam-BSA complexes were compared.
The apparent binding constants (Ka) were calculated by plotting log[(F₀–F)/F] versus log[Q] in the absence and presence of site markers Figure S6.

bovine serum albumin = molecular target: T3, bovine serum albumin (Bos taurus, UniProt P02769); test: FT-IR spectroscopy of BSA with MOL; type: binding; details: BSA 3 µM, MOL 180 µM, pH 7.4
T3 construct: purchased BIOMARK laboratories (Pune, Maharashtra, India)
T3 sequence (P02769 25-607): as above
Method: FT-IR spectra of 3 µM bovine serum albumin solution in tris-HCl buffer, BSA (3 µM) in the presence of MOL (180 µM), and MOL alone (180 µM) at pH 7.4 were recorded using Tensor27—S2887 FT-IR spectrometer (Bruker, Germany) from 4000 to 1000 cm^− 1. Baseline correction and water vapor subtraction were applied prior to analysis.
FT-IR spectroscopy was utilized to examine the secondary structure of BSA in free, drug-bound forms and free drug by recording changes in spectra as shown in Fig. S5. However, slight differences were observed between these spectra. […] The results from the UV absorption and fluorescence analysis are consistent with this observation.

[4] = molecular target: T1, bovine serum albumin (BSA); test: Effect of common ions on binding affinity of MOL to BSA; details: 297 K, pH 7.4
Excerpt: […] […] These findings can be used for further investigations into how different ions influence the binding affinity of MOL to BSA.
Ka′/Ka is the binding constant divided by the binding constant in the absence of the ion; r is the correlation coefficient.

[5] = van't Hoff plot of ln Ka vs 1/T, 285–308 K

ΔG (Gibbs free energy change) ([2]; 285 K): -23.915 KJ mol ^− 1
Ksv (Stern–Volmer quenching constant) ([2]; 285 K): 11100 L/mol
n (number of binding sites) ([2]; 285 K): 1.072
Kd ([2]; 285 K): 41.4 µM
ΔG (Gibbs free energy change) ([2]; 290 K): -23.546 KJ mol ^− 1
Ksv (Stern–Volmer quenching constant) ([2]; 290 K): 9635 L/mol
n (number of binding sites) ([2]; 290 K): 1.077
Kd ([2]; 290 K): 57.4 µM
difference between IFE-corrected and uncorrected Ksv ([2]; 295 K): 0.9%
ΔG (Gibbs free energy change) ([2]; 295 K): -23.252 KJ mol ^− 1
corrected Stern–Volmer constant (Ksv) ([2]; 295 K, inner filter effect (IFE) corrected): 7160 L/mol
Ksv (Stern–Volmer quenching constant) ([2]; 295 K): 7096 L/mol
n (number of binding sites) ([2]; 295 K): 1.086
Kd ([2]; 295 K): 76.3 µM
uncorrected Stern–Volmer constant (Ksv) ([2]; 295 K, uncorrected): 7096 L/mol
ΔG (Gibbs free energy change) ([2]; 303 K): -22.276 KJ mol ^− 1
Ksv (Stern–Volmer quenching constant) ([2]; 303 K): 5288 L/mol
n (number of binding sites) ([2]; 303 K): 1.066
Kd ([2]; 303 K): 144 µM
ΔG (Gibbs free energy change) ([2]; 308 K): -21.618 KJ mol ^− 1
Ksv (Stern–Volmer quenching constant) ([2]; 308 K): 3800 L/mol
n (number of binding sites) ([2]; 308 K): 1.055
Kd ([2]; 308 K): 216 µM
fluorescence quenching mechanism ([2]; Ksv inversely proportional to temperature): static interaction
ΔH (enthalpy change) [2, 5]: -52.434 KJ.mol ^− 1
ΔS (entropy change) [2, 5]: -99.63 J mol^− 1K^− 1
red shift in λmax of BSA synchronous fluorescence (BSA; Δλ = 15 nm (Tyr residues)): about 2 nm
shift in λmax of BSA synchronous fluorescence (BSA; Δλ = 60 nm): no shift was detected
Kd ([3]; in presence of diazepam (site II probe, 10 µM)): 361 µM
Kd ([3]; in presence of indomethacin (site I probe, 10 µM)): 56.3 µM
preferential binding site on BSA ([3]; site marker displacement): Sudlow’s site II
amide band of BSA after addition of MOL (bovine serum albumin): shifted from 1610 cm^−1 to 1636 cm^−1
Ka’/ Ka (binding constant divided by binding constant in absence of the ion) ([4]; Ca^2+ added (75 µM)): 0.9046
Kd ([4]; Ca^2+ added (75 µM), read-out: Ka’ (binding constant) (converted)): 674 µM
Ka’/ Ka (binding constant divided by binding constant in absence of the ion) ([4]; Co^2+ added (75 µM)): 1.6233
Kd ([4]; Co^2+ added (75 µM), read-out: Log Ka (converted)): 375 µM
Ka’/ Ka (binding constant divided by binding constant in absence of the ion) ([4]; Cu^2+ added (75 µM)): 0.2573
Kd ([4]; Cu^2+ added (75 µM), read-out: Log Ka (converted)): 2370 µM
Ka’/ Ka (binding constant divided by binding constant in absence of the ion) ([4]; No ion): 1
Kd ([4]; No ion, read-out: Ka’ (binding constant) (converted)): 609 µM
Compound: CC(C)C(=O)OC[C@H]1O[C@@H](n2ccc(NO)nc2=O)[C@H](O)[C@@H]1O [MOL, Molnupiravir]
systemic plasma concentration of parent drug [1]: no significant concentrations of the parent drug are detected systemically in plasma
